Measurements as given in patent publication US9844595B2, “Composition comprising a complex of (+)-catechin and amino acid for the treatment and prevention of cancer” (VALORE, priority 2013, dated 2017).
Several values for one entry are separate records, joined by “and”; a condition that tells them apart may be missing. Equal values may be shown once. Read-outs that look alike come from different tables or passages of the source.

Key:
[1] = for Δct measured between the IV and PO data, free (+)-catechin / Δct measured between the IV and PO data, total (+)-catechin: PO vs IV; for plasma concentration (cc) of the free monomeric (+)-catechin / plasma concentration (cc) of the total monomeric (+)-catechin: 25 mg/kg (+)-catechin equivalent
Experimental: The experimental results described below were obtained on the basis of a study carried out in healthy human beings and in healthy Wistar rats weighing approximately 250 grams.
An acclimation period was observed before beginning the experiments.
The rats received an administration per os of a volume of 5 ml of a solution of active product.
With regard to taking the blood samples from the rats and from the human beings, the blood was collected in tubes internally coated with EDTA and was then centrifuged at 3000 rpm (revolutions per minute) at ambient temperature for 45 min, and then for 15 min at a temperature of 4° C. The plasma was then collected and stored at −70° C. before analysis.
The analytical technique (LC-MS/MS for Liquid Chromatography coupled to tandem Mass Spectrometry) for measuring the active substance in the blood was based on the method described by Mata-Bilbao et al., published in 2007 in the Journal of Agricultural and Food Chemistry, volume 55, page 8857.
The free (+)-catechin was extracted from the plasma with a solution of phosphoric acid, EDTA and ascorbic acid and was then purified by SPE (solid phase extraction); in particular, it is an Oasis™ HLB extraction which is analyzed by LC-MS/MS. The quantification was carried out according to a standard calibration procedure with (+/−)-catechin-2,3,4-^13C3 as internal standard (SI).
The procedure is identical with regard to the extraction and the quantification of free quercetin or ECGC in the blood.
With regard to the extraction and quantification of the total (+)-catechin, the procedure is the same as that applied to the free (+)-catechin, with the exception of the fact that an additional step prior to the purification by SPE is carried out.
(§1) Each of the mixtures is then solubilized in water.
Each of the mixtures is solubilized in water.

collagen of rat skin = assay: Total incorporation and incorporation into collagen of 3H-proline in the skin; assay type: in vivo, Wistar rats; conditions: for increase in the level of incorporation: 100 mg/kg by gavage, vs control subgroup
Experimental: To do this, a study was carried out in vivo on a batch of 24 female Wistar rats weighing from 95 to 115 g, divided into two groups C and D, each of 12 rats. For each group, the radioactive 3H-hydroxyproline, the specific activity of which is 13.6 Ci/10-3 mol, was administered to all the animals by intraperitoneal injection of 3H-proline at a dose, relative to the weight of the individuals, of 1 mCi/kg, which represents an activity in terms of radioactive 3H-proline of 100 μCi/individual.
6 rats of each group received a treatment based on monomeric (+)-catechin by gavage in a proportion of 100 mg/kg for 5 days before sacrifice. […] The group C received monomeric (+)-catechin hydrochlorolysinate, while the group D received monomeric (+)-catechin ascorbolysinate.
In table 8, the level of incorporation is measured by the number of disintegrations of the radioactive 3H-hydroxyproline per minute (dpm) per mg of dry weight. The higher this number, the higher the concentration of 3H-hydroxyproline.
In this comparative example, a group E of 12 Wistar rats weighing from 95 to 115 g, in which radioactive 3H-hydroxyproline, the specific activity of which is 13.6 Ci/10-3 mol, was administered to all the individuals by intraperitoneal injection of 3H-proline at a dose, relative to the weight of the individuals, of 1 mCi/kg, which represents an activity in terms of radioactive 3H-proline of 100 μCi/individual.
6 rats of each group received a treatment based on pure monomeric (+)-catechin by gavage in a proportion of 100 mg/kg for 5 days before sacrifice.

[2] = system: clear cell renal carcinoma; assay: Treatment of a patient with renal adenocarcinoma; assay type: in vivo, human; conditions: DT+19 months, reconfirmed DT+23 months; one patient, 500 mg per day orally, after nephrectomy, dissections and radiotherapy
Experimental: In the second patient, a left subclavicular cervical adenopathy was first of all detected on day Do. Next, 2 weeks later, a left renal adenocarcinoma was detected for this patient, which was followed by a nephrectomy of the left kidney 3 days after the detection of the adenocarcinoma in this kidney.
Thereafter, on day D0+3 months, a left cervical lymph node dissection is performed on the patient. This procedure was followed by a series of 15 radiotherapy sessions.
Starting from day D0+15 months (that is to say on day DT), the patient was orally administered a tablet of 500 mg of (+)-catechin hydrochlorolysinate per day.
On day DT+15 months, the appearance of a pathological mediastinal adenopathy (45 cm^3 in volume) was observed and required a mediastinal lymph node dissection followed by a pulmonary examination on day DT+17 months.

gastric mucosa = assay: Incidence of gastric ulcers and histamine level in the gastric mucosa in Mastomys; assay type: in vivo
Experimental: In this example, a sample of n=48 Mastomys are sensitized a first time by intraperitoneal injection of 3 μg of ovalbumin dissolved in 0.2 ml of saline solution containing 1 mg of aluminum hydroxide which brings about anti-immunoglobulin E (IgE) and G (IgG) antibodies. After 7 days, a second injection of 1 mg of ovalbumin in 0.01 ml of saline solution is given in the gastric mucosa at the level of the corpus of the anesthetized animals, which causes an ulcerated lesion at the actual site of the injection.
The 48 rats are divided up into three groups: one of 24 and two of 12 individuals. The first group of 24 individuals (G1) received a placebo (concentrated NaCl solution at 0.15 M).
The histamine level is measured for the G1, G2 and G3 groups on the basis of a sample of n=12 individuals.

[3] = system: monoclonal immunoglobulins (IgM); assay: Treatment of a patient with lymphoplasmocytic lymphoma (Waldenström macroglobulinemia type): IgM assay; assay type: in vivo, human; conditions: one patient
Experimental: In the first patient a lymphoplasmocytic lymphoma (of Waldenström macroglobulinemia type) was detected during a post-operative blood test on day Do. The diagnosis is based on the electrophoretic detection of a monoclonal peak of immunoglobulins (IgM). This diagnosis was reconfirmed and the peak was assayed during a second analysis using the same detection by electrophoresis.
These immunoglobulins are found at a high concentration in the blood and in the urine. They therefore constitute real tumor markers. The assaying thereof gives an account of the number of sick cells and the extent of the disease and, consequently, makes it possible to monitor its progression under treatment.
Successive blood tests gave the following data for the IgM assay (in mg per 100 ml of plasma): […]

[4] = assay type: in vivo, Wistar rats; conditions: IV, rats; for plasma concentration (cc) of the free monomeric (+)-catechin / plasma concentration (cc) of the total monomeric (+)-catechin: 25 mg/kg (+)-catechin equivalent
Source text: as §1

[5] = treated, 100 mg/kg by gavage for 5 days, per mg of dry weight
[6] = G3, n = 12, 100 mg intraperitoneally
[7] = oral administration, vs placebo
[8] = 25 mg/kg, rats, listed as C:Lys:HCl/1:2:2, 25 mg/kg
[9] = free (+)-catechin, rats, per os, dose equivalent to 25 mg/kg (+)-catechin, 5 Wistar rats, pulverulent mixture solubilized in water

For `Cl.Cl.NCCCCC(N)C(=O)O.NCCCCC(N)C(=O)O.O=c1c(O)c(-c2ccc(O)c(O)c2)oc2cc(O)cc(O)c12` [[Q:Lys:HCl/1:2:2], reference compound], the “Δct^q (difference of ct to QP, related back to QP)” value ([1]; rat, in vivo, 25 mg/kg) was “+18%”.

In the case of `O=c1c(O)c(-c2ccc(O)c(O)c2)oc2cc(O)cc(O)c12` [QP, quercetin, reference compound], the “Δct^q (difference of ct to QP, related back to QP)” value ([1]; Wistar, rat, in vivo, 25 mg/kg) is reported as 0%.

In the case of `Cl.Cl.Cl.Cl.Cl.NCCCCC(N)C(=O)O.NCCCCC(N)C(=O)O.NCCCCC(N)C(=O)O.NCCCCC(N)C(=O)O.NCCCCC(N)C(=O)O.Oc1cc(O)c2c(c1)O[C@H](c1ccc(O)c(O)c1)[C@@H](O)C2.Oc1cc(O)c2c(c1)O[C@H](c1ccc(O)c(O)c1)[C@@H](O)C2` [1:2.5:2.5], the “ct, value reported on the curve in FIG. 5” value ([1]; rat, in vivo, 25 mg/kg) is reported as 105 k ng min/ml.

With `O=C(O[C@@H]1Cc2c(O)cc(O)cc2O[C@@H]1c1cc(O)c(O)c(O)c1)c1cc(O)c(O)c(O)c1` [EGCG, epigallocatechin gallate, reference compound] the “plasma levels measured (below the reliable limits of detection)” value ([1]; EGCG, rats, per os, dose equivalent to 25 mg/kg polyphenol) was “below 250 ng/ml”.

With `Cl.Cl.Cl.NCCCCC(N)C(=O)O.NCCCCC(N)C(=O)O.NCCCCC(N)C(=O)O.Oc1cc(O)c2c(c1)O[C@H](c1ccc(O)c(O)c1)[C@@H](O)C2` [1:3:3, reference compound] the “ct, calculated value” ([1]; rat, in vivo, 25 mg/kg) was 38 k ng min/ml.

In the case of “monomeric (+)-catechin hydrochlorolysinate [[C:Lys:HCl/1:1:1]]”, the “increase in the level of incorporation” value (collagen of rat skin) is reported as “+15%”, the “level of incorporation into collagen (IC) of 3H-hydroxyproline in rat skin” value (collagen of rat skin; [5]) is reported as 1343 ± 48 dpm/mg and the “level of total incorporation (IT) of 3H-hydroxyproline in rat skin” value (collagen of rat skin; [5]) is reported as 6248 ± 124 dpm/mg. The “status of the clear cell renal carcinoma (consultation report)” value [2] was “complete remission”, the “HL (histamine level in the gastric mucosa)” value (gastric mucosa; G2, n = 12, per os twice a day (2×300 mg)) was 37.91 ± 3.73 10^−6 mg/kg of protein and the “NU (number of animals exhibiting a gastric ulcer)” value (gastric mucosa; G2, n = 12, per os twice a day (2×300 mg), two days before and three days after injection) was 5. For the same molecule, the “HL (histamine level in the gastric mucosa)” value (gastric mucosa; [6]) was 34.98 ± 3.52 10^−6 mg/kg of protein, the “NU (number of animals exhibiting a gastric ulcer)” value (gastric mucosa; [6]) was 6 and the “decrease in the histamine level (HL) in the gastric mucosa” value (gastric mucosa; [7]) was −18%. For the same molecule, the “decrease in the number of animals exhibiting a gastric ulcer (NU)” value (gastric mucosa; [7]) was −72%, the “IgM level in the blood” value ([3]; DT + 4 months, tablet of 500 mg per day from day DT (IgM 2931 on DT)) was 2417 mg/100 ml and the “IgM level in the blood” value ([3]; DT + 9 months, tablet of 500 mg per day from day DT) was 2410 mg/100 ml. The “IgM level in the blood” value ([3]; DT + 15 months, tablet of 500 mg per day from day DT) was 2412 mg/100 ml.

With `Cl.Cl.NCCCCC(N)C(=O)O.NCCCCC(N)C(=O)O.Oc1cc(O)c2c(c1)O[C@H](c1ccc(O)c(O)c1)[C@@H](O)C2` [[C:Lys:HCl/1:2:2]] the “Δct measured between the IV and PO data, free (+)-catechin” value ([1]; 25 mg/kg, rats, 25 mg/kg) was 88%, the “Δct measured between the IV and PO data, total (+)-catechin” value ([1]; 25 mg/kg, rats, 25 mg/kg) was 73% and the “Δct measured between the IV and PO data, free (+)-catechin” value [1, 8] was “+88%”. The “Δct measured between the IV and PO data, total (+)-catechin” value [1, 8] was “+73%”, the “total plasma concentration (ct) of the total monomeric (+)-catechin” value ([1]; PO, 25 mg/kg, rats) was 479 585 ng min/ml and the “plasma concentration (cc) of the free monomeric (+)-catechin” value ([1]; PO, T 10 min, rats) was 428 ng/mL. For the same molecule, the “plasma concentration (cc) of the total monomeric (+)-catechin” value ([1]; PO, T 10 min, rats) was 1839 ng/mL, the “plasma concentration (cc) of the free monomeric (+)-catechin” value ([1]; PO, T 30 min, rats) was 1027 ng/mL and the “plasma concentration (cc) of the total monomeric (+)-catechin” value ([1]; PO, T 30 min, rats) was 3780 ng/mL. For the same molecule, the “plasma concentration (cc) of the free monomeric (+)-catechin” value ([1]; PO, T 60 min, rats) was 1188 ng/mL, the “plasma concentration (cc) of the total monomeric (+)-catechin” value ([1]; PO, T 60 min, rats) was 3190 ng/mL and the “plasma concentration (cc) of the free monomeric (+)-catechin” value ([1]; PO, T 120 min, rats) was 767 ng/mL. For the same molecule, the “plasma concentration (cc) of the total monomeric (+)-catechin” value ([1]; PO, T 120 min, rats) was 1990 ng/mL, the “plasma concentration (cc) of the free monomeric (+)-catechin” value ([1]; PO, T 240 min, rats) was 179 ng/mL and the “plasma concentration (cc) of the total monomeric (+)-catechin” value ([1]; PO, T 240 min, rats) was 475 ng/mL. For the same molecule, the “T (max)” value [1, 9] was 1 h, the “c (max)” value [1, 9] was 1200 ng/mL and the “total plasma concentration (ct) of the free monomeric (+)-catechin” value ([4]; 25 mg/kg) was 87 970 ng min/ml. For the same molecule, the “total plasma concentration (ct) of the total monomeric (+)-catechin” value ([4]; 25 mg/kg) was 277 040 ng min/ml, the “plasma concentration (cc) of the free monomeric (+)-catechin” value ([4]; T 10 min) was 3340 ng/mL and the “plasma concentration (cc) of the total monomeric (+)-catechin” value ([4]; T 10 min) was 8066 ng/mL. For the same molecule, the “plasma concentration (cc) of the free monomeric (+)-catechin” value ([4]; T 30 min) was 991 ng/mL, the “plasma concentration (cc) of the total monomeric (+)-catechin” value ([4]; T 30 min) was 2639 ng/mL and the “plasma concentration (cc) of the free monomeric (+)-catechin” value ([4]; T 60 min) was 291 ng/mL. The “plasma concentration (cc) of the total monomeric (+)-catechin” value ([4]; T 60 min) was 1191 ng/mL, the “plasma concentration (cc) of the free monomeric (+)-catechin” value ([4]; T 120 min) was 0 ng/mL and the “plasma concentration (cc) of the total monomeric (+)-catechin” value ([4]; T 120 min, 25 mg/kg) was 340 ng/mL and 338 ng/mL. For the same molecule, the “plasma concentration (cc) of the free monomeric (+)-catechin” value ([4]; T 240 min) was 0 ng/mL and the “plasma concentration (cc) of the total monomeric (+)-catechin” value ([4]; T 240 min) was 0 ng/mL.

For `Cl.Cl.Cl.Cl.Cl.NCCCCC(N)C(=O)O.NCCCCC(N)C(=O)O.NCCCCC(N)C(=O)O.NCCCCC(N)C(=O)O.NCCCCC(N)C(=O)O.Oc1cc(O)c2c(c1)O[C@H](c1ccc(O)c(O)c1)[C@@H](O)C2` [1:5:5, reference compound], the “ct, calculated value” ([1]; rat, in vivo, 25 mg/kg) was 26 k ng min/ml.

With monomeric (+)-catechin ascorbolysinate the “increase in the level of incorporation” value (collagen of rat skin) was “+14%”.
